The target of one assay is T1, hSGLT2 (Homo sapiens, UniProt P31639).
T1 sequence (P31639 1-672): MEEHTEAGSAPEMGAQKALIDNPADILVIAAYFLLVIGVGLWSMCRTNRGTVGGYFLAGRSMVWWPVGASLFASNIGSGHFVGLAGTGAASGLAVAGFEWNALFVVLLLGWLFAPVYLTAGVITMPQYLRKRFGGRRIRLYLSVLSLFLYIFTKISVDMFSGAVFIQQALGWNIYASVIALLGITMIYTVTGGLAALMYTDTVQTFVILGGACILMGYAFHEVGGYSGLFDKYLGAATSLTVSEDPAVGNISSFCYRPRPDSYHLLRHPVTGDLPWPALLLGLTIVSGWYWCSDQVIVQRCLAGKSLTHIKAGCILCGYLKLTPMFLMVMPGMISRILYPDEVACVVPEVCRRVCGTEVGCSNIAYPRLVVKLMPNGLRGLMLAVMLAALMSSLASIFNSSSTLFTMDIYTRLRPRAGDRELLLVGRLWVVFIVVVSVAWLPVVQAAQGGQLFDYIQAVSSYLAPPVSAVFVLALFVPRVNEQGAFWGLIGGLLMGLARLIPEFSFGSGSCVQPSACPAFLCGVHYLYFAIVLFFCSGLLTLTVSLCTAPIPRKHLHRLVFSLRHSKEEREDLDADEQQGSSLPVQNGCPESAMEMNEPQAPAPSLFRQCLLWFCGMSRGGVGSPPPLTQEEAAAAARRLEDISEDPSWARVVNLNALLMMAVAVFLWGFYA
Briefly: SGLT2 inhibition assay for validation of screening hits and similar compounds (1‐NBD‐glucose uptake, CHO‐hSGLT2 cells). Format: cell-based. Also noted: activity: dose or concentration left out as unconfirmed. As to conditions: for SGLT2/SGLT1 ACTIVITY RATIO 5 uM Mean: ratio of normalized SGLT2 to SGLT1 activity at 5 uM; for remaining activity at 5 µM / remaining activity at 50 µM: 0.5 h, concentration not given, read-out: NORMALIZED SGLT2 ACTIVITY (%); for SGLT2/SGLT1 ACTIVITY RATIO, first concentration / SGLT2/SGLT1 ACTIVITY RATIO, second concentration: ratio of normalized SGLT2 to SGLT1 activity.

Another assay deals with T2, SGLT1 (Homo sapiens, UniProt P13866).
T2 sequence (P13866 1-664): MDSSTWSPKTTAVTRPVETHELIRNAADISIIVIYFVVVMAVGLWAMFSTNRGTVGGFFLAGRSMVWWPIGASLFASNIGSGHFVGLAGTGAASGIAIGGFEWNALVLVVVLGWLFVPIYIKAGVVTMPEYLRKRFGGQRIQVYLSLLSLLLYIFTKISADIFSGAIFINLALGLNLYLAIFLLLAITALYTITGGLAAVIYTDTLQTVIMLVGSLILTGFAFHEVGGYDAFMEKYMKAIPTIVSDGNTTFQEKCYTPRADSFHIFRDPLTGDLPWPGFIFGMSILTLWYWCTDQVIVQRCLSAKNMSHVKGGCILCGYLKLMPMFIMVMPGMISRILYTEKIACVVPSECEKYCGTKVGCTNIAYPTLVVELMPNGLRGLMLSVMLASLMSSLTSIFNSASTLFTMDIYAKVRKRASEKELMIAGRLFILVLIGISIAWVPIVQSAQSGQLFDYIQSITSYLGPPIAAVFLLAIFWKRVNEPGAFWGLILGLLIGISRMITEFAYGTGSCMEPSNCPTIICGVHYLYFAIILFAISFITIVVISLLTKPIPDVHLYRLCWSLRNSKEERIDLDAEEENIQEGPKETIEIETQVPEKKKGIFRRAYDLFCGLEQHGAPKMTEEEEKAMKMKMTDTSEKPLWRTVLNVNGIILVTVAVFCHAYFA
Briefly: SGLT1 inhibition assay for validation of screening hits and similar compounds (1‐NBD‐glucose uptake, CHO‐hSGLT1 cells). The assay is classed as cell-based. Also noted: activity: dose or concentration left out as unconfirmed. Conditions: for activity: compound, normalized 1-NBD-glucose uptake, CHO-hSGLT1 cells; for activity / remaining activity at 5 µM / remaining activity at 50 µM: mean; for inhibition at 50 µM: read-out: SGLT1 inhibition; for remaining activity at 5 µM / remaining activity at 50 µM: 0.5 h, concentration not given, read-out: NORMALIZED SGLT1 ACTIVITY (%); for SGLT1/2 inhibition stated in words: SGLT1 and/or SGLT2, discussion statements.

Where [1] appears, read: mean inhibition with 50 μmol/L inhibitor.

Results on 18 molecules are retold here after article PMC6664820, “Novel natural and synthetic inhibitors of solute carriers SGLT1 and SGLT2” (Pharmacology Research & Perspectives, 2019).

SMILES strings stand for the structures. Where a name gives a salt, the structure may show the parent alone. Read-outs that look alike come from different tables or passages of the source. Non-standard residues stand in square brackets, D forms with d. Residues, ends and D or L forms follow the SMILES beside them. pGlu = O=C1CC[CH](C(=O)O)N1

For `OC[C@H]1O[C@@H](Oc2cc(O)cc(/C=C/c3ccc(O)cc3)c2)[C@H](O)[C@@H](O)[C@@H]1O` [Polydatin], the activity on hSGLT2 (compound, mean, normalized 1-NBD-glucose uptake, CHO-hSGLT2 cells) amounted to 97%; on SGLT1 it was 94%. The inhibition at 50 µM against hSGLT2 (setting [1]) was 18%; at SGLT1 (setting [1]), 46%. The “SGLT2/SGLT1 ACTIVITY RATIO 5 uM Mean” value on hSGLT2 is on record as 1.0. Also, the “SGLT2/SGLT1‐50μmol/L (ratio of SGLT2 to SGLT1 activities with 50 μmol/L inhibitor)” value on SGLT1 is given as 1.5.
For the molecule `c1ccc(CN2CCCCC2)cc1` [1-Benzylpiperidine], on hSGLT2 (mean), the remaining activity at 5 µM amounted to 94% and the remaining activity at 50 µM was determined as 93%. On SGLT1, the remaining activity at 5 µM came out at 109% and the remaining activity at 50 µM was found to be 102%.
On to `Oc1ccc(C=Cc2cc(O)cc3c2C(c2cc(O)cc(O)c2)C(c2ccc(O)cc2)O3)cc1` (stereo not drawn) [(+)‐ε‐viniferin], for which the 50% inhibitory concentration (IC50) was determined as 110 µM at hSGLT2 (1‐NBD‐glucose uptake, CHO‐hSGLT2, mean of n biological replicates, or individual measurements where n=2, read-out: SGLT2‐IC50 Mean) and 58 µM at SGLT1 (1‐NBD‐glucose uptake, CHO‐hSGLT1, mean of n biological replicates, or individual measurements where n=2, read-out: SGLT1‐IC50 Mean). Moreover, the SGLT2 inhibition entry on hSGLT2 (setting [1]) is on record as “little inhibition of SGLT2”. The “SGLT2/SGLT1‐50μmol/L (ratio of SGLT2 to SGLT1 activities with 50 μmol/L inhibitor)” value on SGLT1 (listed as (+)‐ε‐Viniferin) worked out at 1.4. Also, the inhibition at 50 µM at SGLT1 (setting [1]) amounted to 44%.
Take `CCCNC(C)C(=O)Nc1ccccc1C` (stereo not shown) [Prilocaine]: on hSGLT2 (mean), the remaining activity at 5 µM is 89% and the remaining activity at 50 µM came to 76%. Further, on SGLT1, the remaining activity at 5 µM came out at 95% and the remaining activity at 50 µM stood at 86%.
Consider `C/C=C(\C)C(=O)O[C@H]1[C@@H](OC(C)=O)c2c(ccc3ccc(=O)oc23)OC1(C)C` [(+)‐praeruptorin A], for which the “SGLT2/SGLT1‐50μmol/L (ratio of SGLT2 to SGLT1 activities with 50 μmol/L inhibitor)” value on SGLT1 turned out to be 2.
`C1CCN2C[C@H]3C[C@H](CN4CCCC[C@@H]34)[C@H]2C1` [(+)-Sparteine]: on hSGLT2, the “SGLT2/SGLT1 ACTIVITY RATIO, first concentration” value was determined as 1.0 and the “SGLT2/SGLT1 ACTIVITY RATIO, second concentration” value came to 1.0.
As for `CCCCCCCCCCCCN(C)C` [Dimethyldodecylamine], at hSGLT2, the “SGLT2/SGLT1 ACTIVITY RATIO, first concentration” value is given as 0.9 and the “SGLT2/SGLT1 ACTIVITY RATIO, second concentration” value is on record as 1.0.
Take `OC(CCN1CCCC1)(c1ccccc1)C1CCCCC1` (stereo not shown) [procyclidine, reference compound]: the “SGLT1/2 inhibition stated in words” value at SGLT1 is “novel SGLT1/2 inhibitors”.
Regarding `CN(C)CCCN1c2ccccc2CCc2ccccc21` [Imipramine HCl], the “SGLT2/SGLT1 ACTIVITY RATIO 5 uM Mean” value at hSGLT2 is given as 0.743.
For `OC(CCN1CCCCC1)(c1ccccc1)C1CC2C=CC1C2` (stereo not shown) [biperiden, reference compound], at SGLT1, the “SGLT1/2 inhibition stated in words” value is on record as “novel SGLT1/2 inhibitors”.
Consider `CC=C(C)C(=O)O[C@H]1[C@@H](OC(C)=O)c2c(ccc3ccc(=O)oc23)OC1(C)C` [praeruptorin C], for which the activity on SGLT1 worked out at 90%.
On to `CNCCCN1c2ccccc2CCc2ccccc21` [desipramine, reference compound], for which the “SGLT2/SGLT1‐50μmol/L (ratio of SGLT2 to SGLT1 activities with 50 μmol/L inhibitor)” value on SGLT1 is on record as 0.5. Further, the SGLT1 inhibition result on SGLT1 (setting [1]) was “no inhibition”.
Regarding `Cc1cccc(C)c1NC(=O)C1CCCCN1C` (stereo not shown) [mepivacaine, reference compound], the inhibition at 50 µM on SGLT1 (setting [1]) amounted to 11%.
On to `NC(=O)C1CCCN1C(=O)C(CCC(=O)O)NC(=O)C1CCC(=O)N1` (stereo not drawn) [pGlu-Glu-Pro-Amide] ([pGlu]-Glu-Pro-NH2; configuration not given here), for which, on hSGLT2, the “SGLT2/SGLT1 ACTIVITY RATIO, first concentration” value is reported as 1.0 and the “SGLT2/SGLT1 ACTIVITY RATIO, second concentration” value was determined as 1.0.
As for `C1CCN2C[C@@H]3C[C@@H](CN4CCCC[C@@H]34)[C@H]2C1` [(-)-Sparteine], at hSGLT2, the “SGLT2/SGLT1 ACTIVITY RATIO, first concentration” value stood at 1.0 and the “SGLT2/SGLT1 ACTIVITY RATIO, second concentration” value was 0.9.
On the same counts, the results for `C/C=C(/C)C(=O)O[C@H]1C[C@@](C)(O)C(=O)[C@@H](OC(=O)/C(C)=C\C)[C@@]2(C)CC[C@@](O)(C(C)C)[C@H]12` [Laserpitin] are 1.0 and 1.0.
Turning to `CN(C)CCOC(C)(c1ccccc1)c1ccccc1` [Moxastine HCl], on hSGLT2, the “SGLT2/SGLT1 ACTIVITY RATIO 5 uM Mean” value is on record as 0.9.
`CN(C)CCCN1c2ccccc2CCc2ccccc21` [imipramine, reference compound]: the “SGLT2/SGLT1‐50μmol/L (ratio of SGLT2 to SGLT1 activities with 50 μmol/L inhibitor)” value at SGLT1 came to 0.4. Further, at SGLT1 (setting [1]), the inhibition at 50 µM is 24%.

In general, inhibition refers to the drop in the measured response relative to a control, in per cent. Usually IC50 stands for the concentration needed to halve the response being measured.
